The values below come from patent publication US7510830B2, “Cancer treatment by combination therapy” (Cancer Research Technology Limited, priority 2000, dated 2009).

“Also recorded” adds a separate entry of the source. Read-outs that look alike come from different tables or passages of the source.

Data set [1] deals with TNF production in murine leucocytes. In words: TNF production in cultured murine leucocytes in vitro (8 h, ELISA). The data set is classed as cell-based, mouse. As for the experimental part:
The effect of DMXAA on cultured murine leucocytes has also been investigated using LPS as a control. TNF was measured by enzyme-linked immunosorbent assay after 8 h.
Blood samples for extraction of leucocytes were taken by cardiac puncture of halothane-anaesthetised mice into 1-ml syringes containing ACD-A anticoagulant (0.1 ml). All extraction operations were carried out at 7° C. to prevent clotting. Samples were pooled and unsupplemented α-MEM was added to 30 ml and a 10-ml layer of Ficoll-Paque PLUS™ was slowly added to the bottom of the tubes. After centrifugation at 300×g for 30 min the upper layer was removed and the leucocyte layer was carefully drawn off into a fresh 50-ml centrifuge tube. The volume was adjusted to 50 ml with unsupplemented growth medium, the cells were centrifuged at 300×g, and the leucocytes were resuspended at 10^7 cells/ml in α-MEM supplemented with foetal bovine serum (10% v/v), streptomycin sulphate (100 μg/ml) and penicillin-G (100 units/ml).
Cells were added either to 24 well plates (1 ml/well; Nunc, Kamstrup, Roskilde, Denmark) or to 100 mm Petri dishes (10 ml/plate) and incubated in 5% CO2/air at 37° C. overnight. Agents (made up at twice the final concentration in growth medium) were added and plates were further incubated for 8 hours. After the appropriate incubation period of HPBL with drug in 24-well plates, supernatants were removed and either assayed immediately or stored at −20° C.
TNF standards were prepared by making serial dilutions of the TNF stock solution in supplemented culture media (concentration range 10-10,000 pg/ml). ELISA (enzyme-linked immunosorbent assay) plates were made using the OptEIA Human TNF-alpha-Set (Pharmingen, San Diego, Calif., USA). TNF standards and samples were added to the ELISA plates and the assays were carried out according to the manufacturer's directions.

In data set [2] the test system is murine tumours. The following applies: cited from earlier work.
Data set [3] relates to cancer. The following applies: humans; cited from earlier work.
Data set [4] relates to TNF production in human peripheral blood leucocytes (HPBL). The data set is classed as cell-based. As for the experimental part: Partially purified buffy coats were purchased from Auckland Blood Centre and divided into 15-ml, aliquots in 50-ml centrifuge tubes (2070 Conical Tubes, Becton Dickinson Labware, N.J., USA). HPBL in tissue culture dishes (10 ml; 10^7 cells/ml) were incubated overnight in α-MEM culture medium supplemented with FCS (10% v/v), streptomycin sulphate (100 μg/ml) and penicillin-G (100 units/ml). All extraction operations were carried out at 7° C. to prevent clotting. Unsupplemented α-MEM medium was added to 30 ml and a 10-ml layer of Ficoll-Paque PLUS was slowly added to the bottom of the tubes. After centrifugation at 300 g for 30 min the upper layer was removed and the HPBL layer was carefully drawn off into a fresh 50-ml centrifuge tube. The volume was adjusted to 50 ml, the cells were centrifuged at 300 g, and HPBL were resuspended in supplemented α-MEM medium and added (1 ml/well) to 24 well plates (Nunc, Kamstrup, Roskilde, Denmark). Agents (made up at twice the final concentration) were added and plates were incubated for the appropriate times in 5% CO2air at 37° C. overnight. DMXAA sodium salt (this laboratory) was dissolved in medium and protected from light FAA (National Cancer Institute, USA) was dissolved in 5% (w/v) sodium bicarbonate and diluted with medium. Interleukin-laipha (R&D Systems, USA), okadaic acid, LPS and deacylated LPS (Sigma Chemical Co., USA) were dissolved in α-MEM, filter-sterilised and used immediately. The MEM-18 mouse anti-human CD14 IgG antibody was obtained from Sanbio bv, am Uden, Netherlands, and was freed from azide before use by ultrafiltration.
After the appropriate incubation period of HPBL with drug, supernatants were either used immediately or stored at −20° C. TNF standards were prepared by making serial dilutions of the TNF stock solution in supplemented culture media (concentration range 10-10,000 pg/ml). ELISA plates were made using the OptEIA Human TNF-alpha Set (Pharmingen, San Diego, Calif., USA). TNF standards and samples were added to the ELISA plates and the assays were carried out according to the makers' directions.

The subject of data set [5] is serum TNF in C57BL mice. The data set can be described thus: In vivo serum TNF in mice with or without antibiotic pre-treatment. Details: species or system mouse. As for the experimental part: To test the hypothesis that low concentrations of LPS synergise with DMXAA for in vivo TNF production, mice were treated orally with antibiotics for […] and then treated with 25 mg/kg DMXAA. TNF levels were measured […]. C57BL mice were either untreated, or treated for 4 days prior to DMXAA with a mixture of antibiotics (cephalocin 2 g/l and neomycin 2 g/l in the drinking water). Mice received a single i.p. dose of DMXAA (25 mg/kg) and blood was collected by cardiac puncture of halothane-anaesthetised mice after 3 hours. Blood from each mouse was transferred to individual microcentrifuge tubes and allowed to clot overnight on ice before centrifugation at 2000×g for 20 minutes at 4° C. If clotting was not complete the sample was allowed to stand on ice for a further 2 hours, after which it was re-centrifuged. Serum was drawn off the top of the blood samples and stored at −20° C. until assay of TNF content. […] ELISA (enzyme-linked immunosorbent assay) plates were made using the OptEIA Human TNF-alpha-Set (Pharmingen, San Diego, Calif., USA). TNF standards and samples were added to the ELISA plates and the assays were carried out according to the manufacturer's directions.

The conditions of data set [6]: cited from earlier work.

`Cc1ccc2c(=O)c3cccc(CC(=O)O)c3oc2c1C` [DMXAA, 5,6-dimethylxanthenone-4-acetic acid]: the TNF production result in data set [1] (DMXAA (800 μg/ml) co-incubated with anti-CD14 antibody (10 μl/well), murine leucocytes (FIG. 7)) is listed as “high level of TNF production that was even greater than that caused by LPS”; in data set [1] (DMXAA (800 μg/ml) coincubated with dLPS (500 μg/ml), murine leucocytes (FIG. 7)), “significant (p<0.001) elevation of TNF production”; in data set [1] (DMXAA alone (800 μg/ml), murine leucocytes, 8 h (FIG. 7)), “did not significantly increase TNF production”; in data set [4], “large increase in TNF production; also recorded: induced a higher degree of TNF production”. Moreover, the antitumour activity result in data set [2] is on record as “significant antitumour activity”. The clinical anti-cancer activity entry in data set [3] is recorded as “marginal clinical anti-cancer activity”. In addition, the “induction of TNF by low concentrations of LPS” value in data set [4] (DMXAA added to LPS, peripheral blood monocytes) is listed as “unexpectedly stimulated”. Moreover, the “induction of TNF by antibody (MEM-18) to CD14” value in data set [4] (DMXAA added to anti-CD14 antibody, peripheral blood monocytes) is given as “unexpectedly stimulated”. Further, the TNF induction result in data set [4] (DMXAA alone, 800 μg/ml, HPBL) was “no substantial induction of TNF; also recorded: no substantial effect”; in data set [4] (DMXAA alone, cultured HPBL, concentration not given), “little effect on TNF induction”. Further, the “increase in induction of TNF compared to IL-1 alone” value in data set [4] (DMXAA coadministered with IL-1, HPBL (FIG. 4)) is reported as “up to 56 fold”. For the same molecule, the “serum TNF” value in data set [5] (DMXAA 25 mg/kg i.p. following antibiotic treatment, versus mice not receiving antibiotics (FIG. 8)) was “increased serum TNF but the increase was significantly smaller (p<0.001)”. Moreover, in data set [5] (DMXAA 25 mg/kg single i.p. dose, mice not receiving antibiotics (FIG. 8)), the “serum TNF concentrations” value was “substantially increased serum TNF concentrations”. Besides, the water solubility entry in data set [6] is “highly water soluble”.

As to `CCCCCCCCCCCCCC(=O)O[C@@H]1[C@@H](C)[C@@]2(O)[C@@H](C=C(CO)C[C@]3(O)C(=O)C(C)=C[C@@H]23)[C@@H]2C(C)(C)[C@]12OC(C)=O` [PMA, phorbol-12-myristate-13-acetate, reference compound], in data set [4] (PMA alone at concentrations higher than 20 ng/ml, HPBL), the TNF synthesis result is “induced TNF synthesis”. Also, the TNF induction entry in data set [4] (PMA alone at concentrations up to 20 ng/ml, HPBL) is given as “no substantial induction of TNF”.

On to `C=C1[C@@H](O)[C@@H]2O[C@]3(CC[C@H](/C=C/[C@@H](C)[C@@H]4CC(C)=C[C@@]5(O[C@H](C[C@@](C)(O)C(=O)O)CC[C@H]5O)O4)O3)CC[C@H]2O[C@@H]1[C@@H](O)C[C@H](C)[C@H]1O[C@@]2(CCCCO2)CC[C@H]1C` [OA, okadaic acid, reference compound], for which, in data set [4] (OA alone at concentrations higher than 20 ng/ml, HPBL), the TNF synthesis entry is listed as “induced TNF synthesis”. For the same molecule, in data set [4] (OA alone at concentrations up to 20 ng/ml, HPBL), the TNF induction entry is given as “no substantial induction of TNF”.

B1: IL-1: interleukin-1 alpha, inflammatory cytokine (R&D Systems) (protein, UniProt P01583 113-271, looked up)
Interleukin-1 alpha: SAPFSFLSNVKYNFMRIIKYEFILNDALNQSIIRANDQYLTAAALHNLDEAVKFDMGAYKSSKDDAKITVILRISKTQLYVTAQDEDQPVLLKEMPEIPKTITGSETNLLFFWETHGTKNYFTSVAHPNLFIATKQDYWVCLAGGPPSITDFQILENQA
For B1, the TNF induction result in data set [4] (IL-1 alone, HPBL (FIG. 4)) is given as “capable of inducing TNF”.
